# Experimental data: US9539252B2, “Piperazine-substituted benzothiophene derivatives as antipsychotic agents” (OTSUKA PHARMACEUTICAL CO., LTD., priority 2011, dated 2017)
# Test: Solubility in oil (sesame oil, benzyl benzoate), visual observation
# Conditions: benzyl benzoate, oil or lipid, thermodynamic from solid
row,Compound,solubility
1,"COC(=O)CCCNC(=O)OCn1c(=O)ccc2ccc(OCCCCN3CCN(c4cccc5sccc45)CC3)cc21 [Example 101, 4-{7-[4-(4-benzo[b]thiophen-4-ylpiperazin-1-yl)butoxy]-2-oxo-2H-quinolin-1-ylmethoxycarbonylamino}butyric acid methyl ester]",> 100 mg/mL
2,"CN1CCC(C(=O)OCN2C(=O)CCc3ccc(OCCCCN4CCN(c5cccc6sccc56)CC4)cc32)CC1 [Example 102, 1-methylpiperidine-4-carboxylic acid 7-[4-(4-benzo[b]thiophen-4-ylpiperazin-1-yl)butoxy]-2-oxo-3,4-dihydro-2H-quinolin-1-ylmethyl ester]",> 100 mg/mL
3,"CCCCC(C)(C)C(=O)OCn1c(=O)ccc2ccc(OCCCCN3CCN(c4cccc5sccc45)CC3)cc21 [Example 103, 2,2-dimethylhexanoic acid 7-[4-(4-benzo[b]thiophen-4-ylpiperazin-1-yl)butoxy]-2-oxo-2H-quinolin-1-ylmethyl ester]",> 100 mg/mL
4,"CCCCCCCCCCCCCCC(=O)OCn1c(=O)ccc2ccc(OCCCCN3CCN(c4cccc5sccc45)CC3)cc21 [Example 104, pentadecanoic acid 7-[4-(4-benzo[b]thiophen-4-ylpiperazin-1-yl)butoxy]-2-oxo-2H-quinolin-1-ylmethyl ester]",> 100 mg/mL
5,"CC(C)CCC(=O)OCN1C(=O)CCc2ccc(OCCCCN3CCN(c4cccc5sccc45)CC3)cc21 [Example 105, 4-methylpentanoic acid 7-[4-(4-benzo[b]thiophen-4-ylpiperazin-1-yl)butoxy]-2-oxo-3,4-dihydro-2H-quinolin-1-ylmethyl ester]",> 100 mg/mL
6,"O=C(OCN1C(=O)CCc2ccc(OCCCCN3CCN(c4cccc5sccc45)CC3)cc21)C1CCCCCC1 [Example 106, cycloheptanecarboxylic acid 7-[4-(4-benzo[b]thiophen-4-ylpiperazin-1-yl)butoxy]-2-oxo-3,4-dihydro-2H-quinolin-1-ylmethyl ester]",> 100 mg/mL
7,"O=C(NOCc1ccccc1)OCN1C(=O)CCc2ccc(OCCCCN3CCN(c4cccc5sccc45)CC3)cc21 [Example 107, benzyloxycarbamic acid 7-[4-(4-benzo[b]thiophen-4-ylpiperazin-1-yl)butoxy]-2-oxo-3,4-dihydro-2H-quinolin-1-ylmethyl ester]",> 100 mg/mL
8,"CCCCCCCCCCCCCCCCC(=O)OCn1c(=O)ccc2ccc(OCCCCN3CCN(c4cccc5sccc45)CC3)cc21 [Example 108, heptadecanoic acid 7-[4-(4-benzo[b]thiophen-4-ylpiperazin-1-yl)butoxy]-2-oxo-2H-quinolin-1-ylmethyl ester]",> 100 mg/mL
9,"COCCNC(=O)OCn1c(=O)ccc2ccc(OCCCCN3CCN(c4cccc5sccc45)CC3)cc21 [Example 109, N-(2-methoxyethyl)carbamic acid 7-[4-(4-benzo[b]thiophen-4-ylpiperazin-1-yl)butoxy]-2-oxo-2H-quinolin-1-ylmethyl ester]",> 100 mg/mL
10,O=C(NCc1ccco1)OCn1c(=O)ccc2ccc(OCCCCN3CCN(c4cccc5sccc45)CC3)cc21 [Example 110],> 100 mg/mL
11,"CN(Cc1ccccc1)C(=O)OCn1c(=O)ccc2ccc(OCCCCN3CCN(c4cccc5sccc45)CC3)cc21 [Example 111, N-benzyl-N-methylcarbamic acid 7-[4-(4-benzo[b]thiophen-4-ylpiperazin-1-yl)butoxy]-2-oxo-2H-quinolin-1-ylmethyl ester]",> 100 mg/mL
12,"C=CCNC(=O)OCn1c(=O)ccc2ccc(OCCCCN3CCN(c4cccc5sccc45)CC3)cc21 [Example 112, N-allylcarbamic acid 7-[4-(4-benzo[b]thiophen-4-ylpiperazin-1-yl)butoxy]-2-oxo-2H-quinolin-1-ylmethyl ester]",> 100 mg/mL
13,O=C(NCc1ccccn1)OCn1c(=O)ccc2ccc(OCCCCN3CCN(c4cccc5sccc45)CC3)cc21 [Example 113],> 100 mg/mL
14,"C=CCCCCCCCCC(=O)OCN1C(=O)CCc2ccc(OCCCCN3CCN(c4cccc5sccc45)CC3)cc21 [Example 114, undec-10-enoic acid 7-[4-(4-benzo[b]thiophen-4-ylpiperazin-1-yl)butoxy]-2-oxo-3,4-dihydro-2H-quinolin-1-ylmethyl ester]",> 100 mg/mL
15,"O=C(NCCc1ccccc1)OCn1c(=O)ccc2ccc(OCCCCN3CCN(c4cccc5sccc45)CC3)cc21 [Example 116, N-phenethylcarbamic acid 7-[4-(4-75 benzo[b]thiophen-4-ylpiperazin-1-yl)butoxy]-2-oxo-2H-quinolin-1-ylmethyl ester]",> 100 mg/mL
16,"CC(C)NC(=O)OCn1c(=O)ccc2ccc(OCCCCN3CCN(c4cccc5sccc45)CC3)cc21 [Example 117, N-isopropyl-carbamic acid 7-[4-(4-benzo[b]thiophen-4-ylpiperazin-1-yl)butoxy]-2-oxo-2H-quinolin-1-ylmethyl ester]",> 100 mg/mL
17,"O=C(OCn1c(=O)ccc2ccc(OCCCCN3CCN(c4cccc5sccc45)CC3)cc21)C1CCCCCC1 [Example 119, cycloheptanecarboxylic acid 7-[4-(4-benzo[b]thiophen-4-ylpiperazin-1-yl)butoxy]-2-oxo-2H-quinolin-1-ylmethyl ester]",> 100 mg/mL
18,"O=C(OCN1C(=O)CCc2ccc(OCCCCN3CCN(c4cccc5sccc45)CC3)cc21)C1CCOCC1 [Example 120, tetrahydropyran-4-carboxylic acid 7-[4-(4-benzo[b]thiophen-4-ylpiperazin-1-yl)butoxy]-2-oxo-3,4-dihydro-2H-quinolin-1-ylmethyl ester]",> 100 mg/mL
19,"CC(C)(C)OC(=O)CC(=O)OCN1C(=O)CCc2ccc(OCCCCN3CCN(c4cccc5sccc45)CC3)cc21 [Example 121, malonic acid 7-[4-(4-benzo[b]thiophen-4-ylpiperazin-1-yl)butoxy]-2-oxo-3,4-dihydro-2H-quinolin-1-ylmethyl ester tert-butyl ester]",> 100 mg/mL
20,"O=C(OCn1c(=O)ccc2ccc(OCCCCN3CCN(c4cccc5sccc45)CC3)cc21)N1CCC(F)(F)CC1 [Example 123, 4,4-difluoropiperidine-1-carboxylic acid 7-[4-(4-benzo[b]thiophen-4-ylpiperazin-1-yl)butoxy]-2-oxo-2H-quinolin-1-ylmethyl ester]",> 100 mg/mL
21,"O=C(CCC(F)(F)F)OCN1C(=O)CCc2ccc(OCCCCN3CCN(c4cccc5sccc45)CC3)cc21 [Example 124, 4,4,4-trifluorobutyric acid 7-[4-(4-benzo[b]thiophen-4-ylpiperazin-1-yl)butoxy]-2-oxo-3,4-dihydro-2H-quinolin-1-ylmethyl ester]",> 100 mg/mL
22,"CN(Cc1ccco1)C(=O)OCn1c(=O)ccc2ccc(OCCCCN3CCN(c4cccc5sccc45)CC3)cc21 [Example 125, N-furan-2-ylmethyl-N-methylcarbamic acid 7-[4-(4-benzo[b]thiophen-4-ylpiperazin-1-yl)butoxy]-2-oxo-2H-quinolin-1-ylmethyl ester]",> 100 mg/mL
23,"CC(C)CCC(=O)OCn1c(=O)ccc2ccc(OCCCCN3CCN(c4cccc5sccc45)CC3)cc21 [Example 126, 4-methylpentanoic acid 7-[4-(4-benzo[b]thiophen-4-ylpiperazin-1-yl)butoxy]-2-oxo-2H-quinolin-1-ylmethyl ester]",> 100 mg/mL
